These results are taken from US20070004660A1, “Synergistic Modulation of Flt3 Kinase Using Alkylquinolines and Alkylquinazolines” (priority 2005, published 2007).

The structures appear in SMILES notation. pIC50: −log10 of the molar value.

Usually pIC50 stands for the negative decadic logarithm of the IC50, by convention in mol/L. Read a high pIC50 as a low IC50.

This experiment deals with T1, wild-type FLT3 receptor (Homo sapiens, UniProt P36888).
T1 construct: host or cells: Baf3 (murine B cell lymphoma line), stably transfected
T1 sequence (P36888 27-993): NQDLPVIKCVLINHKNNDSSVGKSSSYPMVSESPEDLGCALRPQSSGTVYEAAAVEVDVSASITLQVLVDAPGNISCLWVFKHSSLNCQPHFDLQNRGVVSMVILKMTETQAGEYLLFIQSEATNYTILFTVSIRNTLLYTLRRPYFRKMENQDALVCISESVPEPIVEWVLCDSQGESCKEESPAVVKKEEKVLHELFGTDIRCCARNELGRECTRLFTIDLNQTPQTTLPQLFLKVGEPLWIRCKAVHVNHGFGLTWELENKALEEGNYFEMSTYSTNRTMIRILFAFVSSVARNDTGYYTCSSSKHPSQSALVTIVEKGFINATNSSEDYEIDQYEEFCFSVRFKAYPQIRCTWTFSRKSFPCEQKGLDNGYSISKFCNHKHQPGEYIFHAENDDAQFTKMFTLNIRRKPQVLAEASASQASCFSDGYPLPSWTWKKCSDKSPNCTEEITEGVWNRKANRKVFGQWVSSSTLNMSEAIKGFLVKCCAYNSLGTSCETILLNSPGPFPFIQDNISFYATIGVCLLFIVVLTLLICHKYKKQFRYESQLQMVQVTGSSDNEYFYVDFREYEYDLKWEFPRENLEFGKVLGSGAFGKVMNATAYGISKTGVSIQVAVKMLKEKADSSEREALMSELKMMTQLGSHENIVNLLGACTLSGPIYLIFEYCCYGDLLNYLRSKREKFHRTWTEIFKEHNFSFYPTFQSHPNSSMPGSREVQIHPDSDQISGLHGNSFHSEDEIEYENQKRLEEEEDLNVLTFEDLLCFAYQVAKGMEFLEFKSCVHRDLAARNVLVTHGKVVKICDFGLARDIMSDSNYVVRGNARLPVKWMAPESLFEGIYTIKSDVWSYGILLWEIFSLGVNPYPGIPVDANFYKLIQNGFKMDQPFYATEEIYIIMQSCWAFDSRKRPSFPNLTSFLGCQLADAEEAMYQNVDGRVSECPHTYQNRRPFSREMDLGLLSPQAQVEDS
The experiment in a line: Cell-based FLT3 receptor ELISA (FLT ligand-induced phosphorylation in Baf3 FLT3 cells). Particulars: 100 ng/mL Flt ligand, uncertainty ±20%. A digest of the protocol: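 Receptor phosphotyrosine measured by sandwich ELISA (anti-FLT3 capture, HRP anti-pTyr, luminescence) in FLT3-transfected murine Baf3 cells given 1 h compound pretreatment and 10 min 100 ng/mL FLT ligand after overnight low-serum starvation; triplicates, IC50 from nonlinear regression.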
(In general: An ELISA detects its analyte on a solid surface through an enzyme-linked reagent.)

As to `CC(C)Oc1ccc(NC(=O)N2CCC(c3ncnc4ccc(OCCCN5CCN(C)CC5)cc34)CC2)cc1` [Example 76, 4-{6-[3-(4-Methyl-piperazin-1-yl)-propoxy]-quinazolin-4-yl}-piperidine-1-carboxylic acid (4-isopropoxy-phenyl)-amide], the pIC50 was 7.02.

In turn, `O=C(Nc1ccc(N2CCOCC2)cc1)N1CCC(c2ncnc3cc(OCCCO)ccc23)CC1` [Example 77, 4-[7-(3-Hydroxy-propoxy)-quinazolin-4-yl]-piperidine-1-carboxylic acid (4-morpholin-4-yl-phenyl)-amide] gave a negative logarithm of the IC50 (pIC50) of 7.01. In turn, `COCCCOc1ccc2c(C3CCN(C(=O)Nc4ccc(N5CCOCC5)cc4)CC3)ncnc2c1` [Example 78, 4-[7-(3-Methoxy-propoxy)-quinazolin-4-yl]-piperidine-1-carboxylic acid (4-morpholin-4-yl-phenyl)-amide] had a negative-log IC50 (pIC50) of 7.70. With `CC(C)Oc1ccc(NC(=O)N2CCC(c3ncnc4cc(OCCN5CCOC5=O)ccc34)CC2)cc1` [Example 79, 4-{7-[2-(2-Oxo-oxazolidin-3-yl)-ethoxy]-quinazolin-4-yl}-piperidine-1-carboxylic acid (4-isopropoxy-phenyl)-amide], the negative logarithm of the IC50 (pIC50) is 7.77. `CN1CCN(CCCOc2ccc3c(C4CCN(C(=O)Nc5ccc(N6CCOCC6)nc5)CC4)ncnc3c2)CC1` [Example 80, 4-{7-[3-(4-Methyl-piperazin-1-yl)-propoxy]-quinazolin-4-yl}-piperidine-1-carboxylic acid (6-morpholin-4-yl-pyridin-3-yl)-amide] gave a pIC50 of 7.72. Take `CN1CCN(CCCOc2ccc3c(C4CCN(C(=O)Nc5ccc(N6CCOCC6)c(F)c5)CC4)ncnc3c2)CC1` [Example 81, 4-{7-[3-(4-Methyl-piperazin-1-yl)-propoxy]-quinazolin-4-yl}-piperidine-1-carboxylic acid (3-fluoro-4-morpholin-4-yl-phenyl)-amide]: the pIC50 was 7.55. The compound `CN1CCN(CCCOc2ccc3c(C4CCN(C(=O)Nc5ccc(OC6CCCC6)nc5)CC4)ncnc3c2)CC1` [Example 82, 4-{7-[3-(4-Methyl-piperazin-1-yl)-propoxy]-quinazolin-4-yl}-piperidine-1-carboxylic acid (6-cyclopentyloxy-pyridin-3-yl)-amide] had a negative logarithm of the IC50 (pIC50) of 7.20. The value for `O=C1CCCN1CCOc1ccc2c(C3CCN(C(=O)Nc4ccc(N5CCOCC5)nc4)CC3)ncnc2c1` [Example 83, 4-{7-[2-(2-Oxo-pyrrolidin-1-yl)-ethoxy]-quinazolin-4-yl}-piperidine-1-carboxylic acid (6-morpholin-4-yl-pyridin-3-yl)-amide] was 7.43; that for `O=C1CCCN1CCOc1ccc2c(C3CCN(C(=O)Nc4cnc(N5CCCC5)nc4)CC3)ncnc2c1` [Example 84, 4-{7-[2-(2-Oxo-pyrrolidin-1-yl)-ethoxy]-quinazolin-4-yl}-piperidine-1-carboxylic acid (2-pyrrolidin-1-yl-pyrimidin-5-yl)-amide] was 7.10; that for `O=C1CCCN1CCOc1ccc2c(C3CCN(C(=O)Nc4ccc(N5CCOCC5)cc4)CC3)ncnc2c1` [Example 85, 4-{7-[2-(2-Oxo-pyrrolidin-1-yl)-ethoxy]-quinazolin-4-yl}-piperidine-1-carboxylic acid (4-morpholin-4-yl-phenyl)-amide] was 7.12. Regarding `CS(=O)(=O)NCCCOc1ccc2c(C3CCN(C(=O)Nc4ccc(N5CCCC5)nc4)CC3)ncnc2c1` [Example 86, 4-[7-(3-Methanesulfonylamino-propoxy)-quinazolin-4-yl]-piperidine-1-carboxylic acid (6-pyrrolidin-1-yl-pyridin-3-yl)-amide], the pIC50 was 8.05. The figure for `CS(=O)(=O)NCCCOc1ccc2c(C3CCN(C(=O)Nc4ccc(N5CCOCC5)nc4)CC3)ncnc2c1` [Example 87, 4-[7-(3-Methanesulfonylamino-propoxy)-quinazolin-4-yl]-piperidine-1-carboxylic acid (6-morpholin-4-yl-pyridin-3-yl)-amide] is 7.64; for `CS(=O)(=O)NCCCOc1ccc2c(C3CCN(C(=O)Nc4ccc(OC5CCCC5)nc4)CC3)ncnc2c1` [Example 88, 4-[7-(3-Methanesulfonylamino-propoxy)-quinazolin-4-yl]-piperidine-1-carboxylic acid (6-cyclopentyloxy-pyridin-3-yl)-amide] it is 7.52. The value for `O=C1CCCN1CCCOc1ccc2c(C3CCN(C(=O)Nc4ccc(N5CCCC5)nc4)CC3)ncnc2c1` [Example 89, 4-{7-[3-(2-Oxo-pyrrolidin-1-yl)-propoxy]-quinazolin-4-yl}-piperidine-1-carboxylic acid (6-pyrrolidin-1-yl-pyridin-3-yl)-amide] was 9.00; that for `O=C1CCCN1CCCOc1ccc2c(C3CCN(C(=O)Nc4cnc(N5CCCC5)nc4)CC3)ncnc2c1` [Example 90, 4-{7-[3-(2-Oxo-pyrrolidin-1-yl)-propoxy]-quinazolin-4-yl}-piperidine-1-carboxylic acid (2-pyrrolidin-1-yl-pyrimidin-5-yl)-amide] was 6.55; that for `O=C(Nc1ccc(N2CCOCC2)nc1)N1CCC(c2ncnc3cc(OCCN4CCOC4=O)ccc23)CC1` [Example 91, 4-{7-[2-(2-Oxo-oxazolidin-3-yl)-ethoxy]-quinazolin-4-yl}-piperidine-1-carboxylic acid (6-morpholin-4-yl-pyridin-3-yl)-amide] was 8.22. The compound `O=C(Nc1ccc(N2CCCC2)nc1)N1CCC(c2ncnc3cc(OCCN4CCOC4=O)ccc23)CC1` [Example 92, 4-{7-[2-(2-Oxo-oxazolidin-3-yl)-ethoxy]-quinazolin-4-yl}-piperidine-1-carboxylic acid (6-pyrrolidin-1-yl-pyridin-3-yl)-amide] showed a pIC50 of 7.92.

Turning to `CC(C)Oc1ccc(NC(=O)N2CCC(c3ncnc4cc(OCC5CCN(C)CC5)ccc34)CC2)cc1` [Example 93, 4-[7-(1-Methyl-piperidin-4-ylmethoxy)-quinazolin-4-yl]-piperidine-1-carboxylic acid (4-isopropoxy-phenyl)-amide], the pIC50 is 9.00. Turning to `CN1CCC(COc2ccc3c(C4CCN(C(=O)Nc5ccc(N6CCOCC6)cc5)CC4)ncnc3c2)CC1` [Example 94, 4-[7-(1-Methyl-piperidin-4-ylmethoxy)-quinazolin-4-yl]-piperidine-1-carboxylic acid (4-morpholin-4-yl-phenyl)-amide], the negative-log IC50 (pIC50) is 7.96. The value for `O=C(Nc1ccc(N2CCCC2)nc1)N1CCC(c2ncnc3cc(OCCN4CCOCC4)ccc23)CC1` [Example 95, 4-[7-(2-Morpholin-4-yl-ethoxy)-quinazolin-4-yl]-piperidine-1-carboxylic acid (6-pyrrolidin-1-yl-pyridin-3-yl)-amide] was 7.60; that for `O=C(Nc1ccc(N2CCOCC2)cc1)N1CCC(c2ncnc3cc(OCCN4CCOCC4)ccc23)CC1` [Example 96, 4-[7-(2-Morpholin-4-yl-ethoxy)-quinazolin-4-yl]-piperidine-1-carboxylic acid (4-morpholin-4-yl-phenyl)-amide] was 6.61; that for `CC(=O)N1CCN(CCOc2ccc3c(C4CCN(C(=O)Nc5ccc(N6CCOCC6)cc5)CC4)ncnc3c2)CC1` [Example 97, 4-{7-[2-(4-Acetyl-piperazin-1-yl)-ethoxy]-quinazolin-4-yl}-piperidine-1-carboxylic acid (4-morpholin-4-yl-phenyl)-amide] was 7.44. The value for `O=C(Nc1ccc(N2CCOCC2)cc1)N1CCC(c2ncnc3cc(OCCC4CCCCN4)ccc23)CC1` (centres unmarked) [Example 98, 4-[7-(2-Piperidin-2-yl-ethoxy)-quinazolin-4-yl]-piperidine-1-carboxylic acid (4-morpholin-4-yl-phenyl)-amide] was 7.07; that for `CN1CCC(COc2ccc3c(C4CCN(C(=O)Nc5ccc(N6CCCC6)nc5)CC4)ncnc3c2)CC1` [Example 99, 4-[7-(1-Methyl-piperidin-4-ylmethoxy)-quinazolin-4-yl]-piperidine-1-carboxylic acid (6-pyrrolidin-1-yl-pyridin-3-yl)-amide] was 7.85. Consider `CC(C)Oc1ccc(NC(=O)N2CCC(c3ncnc4cc(N(C)C)ccc34)CC2)cc1` [Example 100, 4-(7-Dimethylamino-quinazolin-4-yl)-piperidine-1-carboxylic acid (4-isopropoxy-phenyl)-amide], for which the pIC50 is 8.10. The figure for `CC(C)Oc1ccc(NC(=O)N2CCC(c3ncnc4ccc(OCCCN5CCCC5=O)cc34)CC2)cc1` [Example 101, 4-{6-[3-(2-Oxo-pyrrolidin-1-yl)-propoxy]-quinazolin-4-yl}-piperidine-1-carboxylic acid (4-isopropoxy-phenyl)-amide] is 7.38.
